The subject of series [1] is Human peripheral blood mononuclear cells (PBMC). In words: Cytokine Induction in Human Cells. To be noted: 21-24 hrs culture, lowest concentration giving at least 2x negative control, tested 0.0001-10 micromolar. In kind it is cell-based. How it is done:
Cytokine Induction in Human Cells
Whole blood was obtained from healthy human donors and collected by venipuncture into vacutainer tubes or syringes containing EDTA. Human peripheral blood mononuclear cells (PBMC) were purified from the whole blood by density gradient centrifugation. Histopaque 1077 (15 mL, Sigma, St. Louis, Mo.) was transferred to 6×50 mL sterile polypropylene conical tubes. The Histopaque was overlayed with 15-25 mL of blood diluted 1:2 in Hank's Balanced Salts Solution (HBSS) (Gibco, Life Technology, Grand Island N.Y.). The tubes were then centrifuged at 1370 rpm for 30 minutes at 20° C., with no brake (400×g, GH 3.8A Rotor).
The interface (buffy coat) containing the PBMC was collected and placed in a new sterile 50 mL conical polypropylene centrifuge tube. The PBMC were mixed with an equal volume of HBSS (about 20 mL from the interface and about 20 mL of HBSS), and then centrifuged at 1090 rpm, 10 min, 20° C., with brake (270×g, GH 3.8A Rotor). After completing centrifugation, the cells were resuspended in 2-3 mL ACK Red blood cell lysis buffer (ammonium chloride potassium solution, Gibco, Life Technology) and incubated for 2-5 minutes at 20° C. Next, HBSS (40 mL) was added to the cells, and the sample was centrifuged at 270×g for 10 min at 20° C. The supernatant was decanted, and the cell pellet was resuspended in 5 mL AIM V® Medium (Gibco, Life Technology). Cell aggregates and debris were removed by filtering the cell solution through a BD Falcon 70 micron nylon cell strainer (BD Biosciences, San Jose, Calif.).
The number of viable cells were determined by counting with a Miltenyi FACS instrument (Miltenyi Biotec Inc., San Diego, Calif.) or by using a hemacytometer. For determining cell viability with a hemacytometer, the cells were diluted 1/10 in 0.4% trypan blue and HBSS (specifically, 50 microliter of trypan blue+40 microliter of HBSS+10 microliter of cell solution were added to a microfuge tube and mixed). Ten microliters of the diluted cells were then applied to the hemacytometer, and the number of viable PBMC were determined by microscopy.
The PBMC sample was then resuspended in 96-well plates at a concentration of 8×10^5 cells/well in 0.1 mL of AIM-V medium. Each compound was solubilized in DMSO to create a 3 mM stock solution. The stock solution was then further diluted with AIM-V medium to prepare the serial dilutions. The diluted compound (100 microliters) was then transferred to the PBMCs to achieve final compound concentrations of 10, 1, 0.1, 0.01, 0.001, 0.0001 micromolar. The plates also had both positive and negative controls. The negative control wells contained only AIM-V medium with no example compound. The positive control wells contained imiquimod serially diluted to concentrations of 10, 1, 0.1, 0.01, 0.001, 0.0001 micromolar. The plates were then cultured at 37° C./5% CO2 for 21-24 hrs. Cell-free supernatants were harvested by centrifuging the 96-well plates at 2100 rpm, 23° C. for 10 minutes. Approximately 160 microliter of the supernatant was then stored in a NUNC 96-well plate, covered with the compression cap and stored at −80° C. until the cytokine analysis was done.
IFN-alpha cytokine levels (pg/mL) were measured by ELISA (human IFN-α, pan specific, Mabtech, Cincinnati, Ohio), IFN-gamma, TNF-alpha, and IP-10 cytokine levels (pg/mL) were measured by multiplex bead assay (magnetic beads, R & D Systems Minneapolis, Minn.) according to the manufacturer's instructions.
Specifically, the minimum effective concentration of each compound (micromolar) was determined as the lowest concentration of the compound that induced a measured cytokine response at a level ([…]) that was at least 2× greater than that observed with the negative control wells.

The mark [2] stands for this setting: ELISA, read-out: MEC to Induce Cytokine IFN-alpha.
The mark [3] stands for this setting: multiplex bead assay, read-out: MEC to Induce Cytokine TNF-alpha.

Structures can show the parent of a compound that is named as a salt. Where two headings read alike, the source gives them in different places.

In turn, `Cc1nc2c(N)nc3ccccc3c2n1CCCCNC(=N)N` (as salt: hydrochloride) [Example 1, 1-[4-(4-amino-2-methyl-imidazo[4,5-c]quinolin-1-yl)butyl]guanidine dihydrochloride] returned a melting point of 234 to 244 °C.
`CCCc1nc2c(N)nc3ccccc3c2n1CCCCNC(=N)N` (as salt: hydrochloride) [Example 3, 1-[4-(4-amino-2-propyl-imidazo[4,5-c]quinolin-1-yl)butyl]guanidine hydrochloride] came in with a melting point of 156 to 158 °C.
In the case of `CCCCc1nc2c(N)nc3ccccc3c2n1CCCCNC(=N)N` (as salt: hydrochloride) [Example 4, 1-[4-(4-amino-2-butyl-imidazo[4,5-c]quinolin-1-yl)butyl]guanidine hydrochloride], the melting point fell in the range of 237 to 238 °C.
For the molecule `COCCc1nc2c(N)nc3ccccc3c2n1CCOCCNC(=N)N` (as salt: hydrochloride) [Example 6, 1-[2-[2-[4-amino-2-(2-methoxyethyl)imidazo[4,5-c]quinolin-1-yl]ethoxy]ethyl]guanidine dihydrochloride], the melting point is 188 to 192 °C.
`CCCCCc1nc2c(N)nc3c(c2n1CCCCNC(=N)N)CCCC3` (as salt: hydrochloride) [Example 7, 1-[4-(4-amino-2-pentyl-6,7,8,9-tetrahydroimidazo[4,5-c]quinolin-1-yl)butyl]guanidine hydrochloride] displayed a melting point of 178 to 180 °C.
In turn, `COCCc1nc2c(N)nc3ccccc3c2n1CC(C)(C)CNC(=N)N` (as salt: hydrochloride) [Example 8, 1-[3-[4-amino-2-(2-methoxyethyl)imidazo[4,5-c]quinolin-1-yl]-2,2-dimethyl-propyl]guanidine hydrochloride] came in with a melting point of 246 to 250 °C.
Regarding `Cc1nc2c(N)nc3ccccc3c2n1CCCCNC(=N)N` [Example 1, 1-[4-(4-amino-2-methyl-imidazo[4,5-c]quinolin-1-yl)butyl]guanidine dihydrochloride], the figures for the minimal effective concentration in series [1] (setting [2]) and in series [1] (setting [3]) were 1 µM and 0.001 µM, respectively.
Consider `CCc1nc2c(N)nc3ccccc3c2n1CCCCNC(=N)N` [Example 2, 1-[4-(4-amino-2-ethyl-imidazo[4,5-c]quinolin-1-yl)butyl]guanidine hydrochloride], for which the minimal effective concentration in series [1] (setting [2]) and in series [1] (setting [3]) was 0.1 µM throughout. The “MEC to Induce Cytokine IP-10” value in series [1] (multiplex bead assay) was determined as 0.1 µM.
Take `CCCc1nc2c(N)nc3ccccc3c2n1CCCCNC(=N)N` [Example 3, 1-[4-(4-amino-2-propyl-imidazo[4,5-c]quinolin-1-yl)butyl]guanidine hydrochloride]: the minimal effective concentration in series [1] (setting [2]) and in series [1] (setting [3]) was 0.1 µM each time. Also, the “MEC to Induce Cytokine IFN-gamma” value in series [1] (multiplex bead assay) was over 10 µM.
Turning to `CCCCc1nc2c(N)nc3ccccc3c2n1CCCCNC(=N)N` [Example 4, 1-[4-(4-amino-2-butyl-imidazo[4,5-c]quinolin-1-yl)butyl]guanidine hydrochloride], the minimal effective concentration in series [1] (setting [2]) and in series [1] (setting [3]) was 0.01 µM throughout. Besides, in series [1] (multiplex bead assay), the “MEC to Induce Cytokine IFN-gamma” value is 0.1 µM. The “MEC to Induce Cytokine IP-10” value in series [1] (multiplex bead assay) worked out at 0.01 µM.
`CCCCc1nc2c(N)nc3ccccc3c2n1CCOCCNC(=N)N` [Example 5, 1-[2-[2-(4-amino-2-butyl-imidazo[4,5-c]quinolin-1-yl)ethoxy]ethyl]guanidine dihydrochloride]: the minimal effective concentration is 0.01 µM in series [1] (setting [2]) and 0.001 µM in series [1] (setting [3]). Also, the “MEC to Induce Cytokine IFN-gamma” value in series [1] (multiplex bead assay) stood at 0.01 µM. Further, the “MEC to Induce Cytokine IP-10” value in series [1] (multiplex bead assay) is 0.001 µM.
For `COCCc1nc2c(N)nc3ccccc3c2n1CCOCCNC(=N)N` [Example 6, 1-[2-[2-[4-amino-2-(2-methoxyethyl)imidazo[4,5-c]quinolin-1-yl]ethoxy]ethyl]guanidine dihydrochloride], in series [1] (setting [2]), the minimal effective concentration is 0.01 µM. In series [1] (multiplex bead assay), the “MEC to Induce Cytokine IFN-gamma” value is 0.01 µM and the “MEC to Induce Cytokine IP-10” value is 0.01 µM. The minimal effective concentration in series [1] (setting [3]) turned out to be 0.01 µM.
As to `CCCCCc1nc2c(N)nc3c(c2n1CCCCNC(=N)N)CCCC3` [Example 7, 1-[4-(4-amino-2-pentyl-6,7,8,9-tetrahydroimidazo[4,5-c]quinolin-1-yl)butyl]guanidine hydrochloride], in series [1] (setting [2]), the minimal effective concentration came to 1 µM. For the same molecule, in series [1] (multiplex bead assay), the “MEC to Induce Cytokine IFN-gamma” value is over 10 µM and the “MEC to Induce Cytokine IP-10” value was 0.1 µM. The minimal effective concentration in series [1] (setting [3]) is 1 µM.
`COCCc1nc2c(N)nc3ccccc3c2n1CC(C)(C)CNC(=N)N` [Example 8, 1-[3-[4-amino-2-(2-methoxyethyl)imidazo[4,5-c]quinolin-1-yl]-2,2-dimethyl-propyl]guanidine hydrochloride]: the minimal effective concentration in series [1] (setting [2]) and in series [1] (setting [3]) was 0.1 µM in each case. Moreover, the “MEC to Induce Cytokine IFN-gamma” value in series [1] (multiplex bead assay) turned out to be 0.1 µM. Besides, in series [1] (multiplex bead assay), the “MEC to Induce Cytokine IP-10” value was determined as 0.01 µM.
For `CC(C)Cn1cnc2c(N)nc3ccccc3c21` [imiquimod, reference compound], in series [1] (setting [2]), the minimal effective concentration came out at 10 µM. In addition, in series [1] (multiplex bead assay), the “MEC to Induce Cytokine IFN-gamma” value came to 10 µM and the “MEC to Induce Cytokine IP-10” value amounted to 10 µM. Besides, the minimal effective concentration in series [1] (setting [3]) turned out to be 10 µM.

The record behind these values is US10487081B2, “Guanidine substituted imidazo[4,5-c] ring compounds” (3M INNOVATIVE PROPERTIES COMPANY, priority 2015, dated 2019).
